Series [1] in a line: Chrom LogP of maytansinoid conjugates. The class given is physicochemical.
A short description of series [2]: Ligand charge of maytansinoid conjugates. Format: physicochemical.
The target of series [3] is human SSTR2 (Homo sapiens, UniProt P30874). As to the kind of experiment: Radioligand-receptor binding assay, [125I] somatostatin, membranes from SSTR2 expressing CHO-K1 cells. The method, boiled down:
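CHO-K1 SSTR2 membranes incubated 4 h with 0.03 nM [125I] somatostatin and conjugates in a 10-point, 6-fold series from 10 uM. Bound radioligand measured after filtration and washing; IC50 by non-linear least-squares regression.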

Series [4] deals with NCI-H524 (ATCC) human lung cancer cells. The class given is cell-based. The method, boiled down:
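NCI-H524 cells (5,000/well) exposed to conjugates for 6 hours, washed, then grown a further 66 hours; ten-point threefold dilutions from 20 μM. Proliferation by CellTiter-Glo versus vehicle; IC50 by four-parameter nonlinear regression, measured with and without octreotide competition.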

Where [5] appears, read: read-out: H524 IC50 6 h, 6 hours treatment, further 66 hours incubation.
The mark [6] stands for this setting: read-out: H524 IC50 with 100 μM octreotide 6 h, with 100 μM octreotide competition, 6 h treatment.

Like-named read-outs stand apart in the source and are kept apart here.

Chain of human SSTR2 (P30874 whole entry): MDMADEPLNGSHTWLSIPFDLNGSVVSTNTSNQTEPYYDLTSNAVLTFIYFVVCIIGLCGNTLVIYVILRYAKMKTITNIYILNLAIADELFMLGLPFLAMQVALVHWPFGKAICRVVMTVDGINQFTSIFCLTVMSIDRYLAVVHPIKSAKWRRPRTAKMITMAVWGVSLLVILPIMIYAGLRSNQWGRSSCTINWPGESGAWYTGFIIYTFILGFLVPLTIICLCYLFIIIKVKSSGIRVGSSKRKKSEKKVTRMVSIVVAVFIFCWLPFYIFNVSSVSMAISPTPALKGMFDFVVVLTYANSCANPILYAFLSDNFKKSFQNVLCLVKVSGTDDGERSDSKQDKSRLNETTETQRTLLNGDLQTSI

Usually chromatographic logP stands for lipophilicity estimated from chromatographic retention. A low value points to lower lipophilicity. Broadly, the Ki is a measure of affinity in units of concentration, obtained from inhibition or displacement. One may read the IC50 as the point on the concentration scale where inhibition reaches its midpoint. As to `COc1cc2cc(c1Cl)N(C)C(=O)C[C@H](OC(=O)[C@H](C)N(C)C(=O)CCSSC[C@H](NC(=O)[C@@H]1CSSC[C@H](NC(=O)[C@@H](Cc3ccccc3)NS(C)(=O)=O)C(=O)N[C@@H](Cc3ccc(O)cc3)C(=O)N[C@H](Cc3c[nH]c4ccccc34)C(=O)N[C@@H](CCCCN)C(=O)N[C@@H]([C@@H](C)O)C(=O)N1)C(N)=O)[C@]1(C)O[C@H]1[C@H](C)[C@@H]1C[C@@](O)(NC(=O)O1)[C@H](OC)/C=C/C=C(\C)C2` [Conjugate 34], the chromatographic logP in series [1] is 2.57. Besides, the Ligand charge entry in series [2] is given as “+1”. Further, in series [3], the inhibitory constant (Ki) is 0.18 nM. Further, the IC50 in series [4] (setting [5]) was determined as 13 nM; in series [4] (setting [6]), 83 nM.
Taken in the same sequence, the figures for `CCNC(=O)N[C@H](Cc1ccccc1)C(=O)N[C@H]1CSSC[C@@H](C(=O)N[C@H](C(N)=O)C(C)(C)SSCCC(=O)N(C)[C@@H](C)C(=O)O[C@H]2CC(=O)N(C)c3cc(cc(OC)c3Cl)C/C(C)=C/C=C/[C@@H](OC)[C@@]3(O)C[C@H](OC(=O)N3)[C@@H](C)[C@@H]3O[C@@]23C)NC(=O)[C@H]([C@@H](C)O)NC(=O)[C@H](CCCCN)NC(=O)[C@@H](Cc2c[nH]c3ccccc23)NC(=O)[C@H](Cc2ccc(O)cc2)NC1=O` [Conjugate 13] were 2.67, “+1”, 0.018 nM, 6.5 nM and 340 nM.
For `COc1cc2cc(c1Cl)N(C)C(=O)C[C@H](OC(=O)[C@H](C)N(C)C(=O)CCSSC[C@H](NC(=O)[C@@H]1CSSC[C@H](NC(=O)[C@@H](Cc3ccccc3)NC(=O)Nc3cc(C(F)(F)F)cc(C(F)(F)F)c3)C(=O)N[C@@H](Cc3ccc(O)cc3)C(=O)N[C@H](Cc3c[nH]c4ccccc34)C(=O)N[C@@H](CCCCN)C(=O)N[C@@H]([C@@H](C)O)C(=O)N1)C(N)=O)[C@]1(C)O[C@H]1[C@H](C)[C@@H]1C[C@@](O)(NC(=O)O1)[C@H](OC)/C=C/C=C(\C)C2` [Conjugate 38] the same measures were 3.47, “+1”, 5.34 nM, 261 nM and 296 nM.
In turn, `COc1cc2cc(c1Cl)N(C)C(=O)C[C@H](OC(=O)[C@H](C)N(C)C(=O)CCSSC(C)(C)[C@H](NC(=O)[C@@H]1CSSC[C@H](NC(=O)[C@@H](Cc3ccccc3)NCc3ccccc3)C(=O)N[C@@H](Cc3ccc(O)cc3)C(=O)N[C@H](Cc3c[nH]c4ccccc34)C(=O)N[C@@H](CCCCN)C(=O)N[C@@H]([C@@H](C)O)C(=O)N1)C(N)=O)[C@]1(C)O[C@H]1[C@H](C)[C@@H]1C[C@@](O)(NC(=O)O1)[C@H](OC)/C=C/C=C(\C)C2` [Conjugate 12] had a chromatographic logP in series [1] of 2.57. In series [2], the Ligand charge entry is reported as “+2”. In series [3], the affinity corresponds to a Ki of 0.02 nM. For the same compound, the IC50 in series [4] (setting [5]) was determined as 19.5 nM; in series [4] (setting [6]), 331 nM.
For `COc1cc2cc(c1Cl)N(C)C(=O)C[C@H](OC(=O)[C@H](C)N(C)C(=O)CCSSC[C@H](NC(=O)[C@@H]1CSSC[C@H](NC(=O)[C@H](N)Cc3ccccc3)C(=O)N[C@@H](Cc3ccc(O)cc3)C(=O)N[C@H](Cc3c[nH]c4ccccc34)C(=O)N[C@@H](CCCCNC(=O)NCCCCCCN)C(=O)N[C@@H]([C@@H](C)O)C(=O)N1)C(N)=O)[C@]1(C)O[C@H]1[C@H](C)[C@@H]1C[C@@](O)(NC(=O)O1)[C@H](OC)/C=C/C=C(\C)C2` [Conjugate 56] the same measures were 1.92, “+2”, 1900 nM, 246 nM and 361 nM.
For `COc1cc2cc(c1Cl)N(C)C(=O)C[C@H](OC(=O)[C@H](C)N(C)C(=O)CCSSC(C)(C)[C@H](NC(=O)[C@@H]1CSSC[C@H](NC(=O)[C@@H](Cc3ccccc3)NS(=O)(=O)Cc3ccc(C(F)(F)F)cc3)C(=O)N[C@@H](Cc3ccc(O)cc3)C(=O)N[C@H](Cc3c[nH]c4ccccc34)C(=O)N[C@@H](CCCCN)C(=O)N[C@@H]([C@@H](C)O)C(=O)N1)C(N)=O)[C@]1(C)O[C@H]1[C@H](C)[C@@H]1C[C@@](O)(NC(=O)O1)[C@H](OC)/C=C/C=C(\C)C2` [Conjugate 14] the same measures were 3.23, “+1”, 0.041 nM, 14 nM and 331 nM.
Taken in the same sequence, the figures for `COc1cc2cc(c1Cl)N(C)C(=O)C[C@H](OC(=O)[C@H](C)N(C)C(=O)CCSSC[C@H](NC(=O)[C@@H]1CSSC[C@H](NC(=O)[C@@H](Cc3ccccc3)NC(=O)NCc3ccccc3)C(=O)N[C@@H](Cc3ccc(O)cc3)C(=O)N[C@H](Cc3c[nH]c4ccccc34)C(=O)N[C@@H](CCCCN)C(=O)N[C@@H]([C@@H](C)O)C(=O)N1)C(N)=O)[C@]1(C)O[C@H]1[C@H](C)[C@@H]1C[C@@](O)(NC(=O)O1)[C@H](OC)/C=C/C=C(\C)C2` [Conjugate 28] were 2.51, “+1”, 0.057 nM, 6.1 nM and 31 nM.
Regarding `COc1cc2cc(c1Cl)N(C)C(=O)C[C@H](OC(=O)[C@H](C)N(C)C(=O)CCC(C)(C)SSC[C@H](NC(=O)[C@@H]1CSSC[C@H](NC(=O)[C@H](N)Cc3ccccc3)C(=O)N[C@@H](Cc3ccc(O)cc3)C(=O)N[C@H](Cc3c[nH]c4ccccc34)C(=O)N[C@@H](CCCCN)C(=O)N[C@@H]([C@@H](C)O)C(=O)N1)C(N)=O)[C@]1(C)O[C@H]1[C@H](C)[C@@H]1C[C@@](O)(NC(=O)O1)[C@H](OC)/C=C/C=C(\C)C2` [Conjugate 4], in series [1], the chromatographic logP amounted to 2.21. Also, the Ligand charge entry in series [2] is “+2”. This compound yielded a Ki in series [3] of 0.075 nM. Besides, the IC50 in series [4] (setting [5]) was determined as 78 nM; in series [4] (setting [6]), 348 nM.
`COc1cc2cc(c1Cl)N(C)C(=O)C[C@H](OC(=O)[C@H](C)N(C)C(=O)CCSSC(C)(C)[C@H](NC(=O)[C@@H]1CSSC[C@H](NC(=O)[C@@H](Cc3ccccc3)NC(=O)Nc3ccccc3)C(=O)N[C@@H](Cc3ccc(O)cc3)C(=O)N[C@H](Cc3c[nH]c4ccccc34)C(=O)N[C@@H](CCCCN)C(=O)N[C@@H]([C@@H](C)O)C(=O)N1)C(N)=O)[C@]1(C)O[C@H]1[C@H](C)[C@@H]1C[C@@](O)(NC(=O)O1)[C@H](OC)/C=C/C=C(\C)C2` [Conjugate 11] displayed a chromatographic logP in series [1] of 2.98. Besides, the Ligand charge entry in series [2] is given as “+1”. The compound further gave a Ki in series [3] of 0.034 nM. The IC50 was found to be 6.1 nM in series [4] (setting [5]) and 232 nM in series [4] (setting [6]).
For `COc1cc2cc(c1Cl)N(C)C(=O)C[C@H](OC(=O)[C@H](C)N(C)C(=O)CCSSC[C@H](NC(=O)[C@@H]1CSSC[C@H](NC(=O)[C@@H](Cc3ccccc3)NC(=O)NCCC(c3ccccc3)c3ccccc3)C(=O)N[C@@H](Cc3ccc(O)cc3)C(=O)N[C@H](Cc3c[nH]c4ccccc34)C(=O)N[C@@H](CCCCN)C(=O)N[C@@H]([C@@H](C)O)C(=O)N1)C(N)=O)[C@]1(C)O[C@H]1[C@H](C)[C@@H]1C[C@@](O)(NC(=O)O1)[C@H](OC)/C=C/C=C(\C)C2` [Conjugate 41], in series [1], the chromatographic logP came to 3.29. Moreover, the Ligand charge result in series [2] was “+1”. The compound also displayed a Ki in series [3] of 0.5 nM. Further, the values for the IC50 in series [4] (setting [5]) and in series [4] (setting [6]) were 41 nM and 97 nM, respectively.
Regarding `COc1cc2cc(c1Cl)N(C)C(=O)C[C@H](OC(=O)[C@H](C)N(C)C(=O)CCSSC[C@H](NC(=O)[C@@H]1CSSC[C@H](NC(=O)[C@@H](Cc3ccccc3)NC(=O)NCCC(F)(F)C(F)(F)C(F)(F)C(F)(F)C(F)(F)C(F)(F)C(F)(F)C(F)(F)F)C(=O)N[C@@H](Cc3ccc(O)cc3)C(=O)N[C@H](Cc3c[nH]c4ccccc34)C(=O)N[C@@H](CCCCN)C(=O)N[C@@H]([C@@H](C)O)C(=O)N1)C(N)=O)[C@]1(C)O[C@H]1[C@H](C)[C@@H]1C[C@@](O)(NC(=O)O1)[C@H](OC)/C=C/C=C(\C)C2` [Conjugate 40], the chromatographic logP in series [1] is 4. The Ligand charge result in series [2] is on record as “+1”. Besides, the Ki in series [3] worked out at 3.51 nM.
Regarding `COc1cc2cc(c1Cl)N(C)C(=O)C[C@H](OC(=O)[C@H](C)N(C)C(=O)CCSSC[C@H](NC(=O)[C@@H]1CSSC[C@H](NC(=O)[C@@H](Cc3ccccc3)NC(=O)NC3CCCCC3)C(=O)N[C@@H](Cc3ccc(O)cc3)C(=O)N[C@H](Cc3c[nH]c4ccccc34)C(=O)N[C@@H](CCCCN)C(=O)N[C@@H]([C@@H](C)O)C(=O)N1)C(N)=O)[C@]1(C)O[C@H]1[C@H](C)[C@@H]1C[C@@](O)(NC(=O)O1)[C@H](OC)/C=C/C=C(\C)C2` [Conjugate 25], the chromatographic logP in series [1] stood at 2.94. Also, in series [2], the Ligand charge entry is given as “+1”. Moreover, the affinity in series [3], expressed as Ki, was 0.11 nM. In addition, the IC50 in series [4] (setting [5]) turned out to be 32 nM; in series [4] (setting [6]), 123 nM.
For `COc1cc2cc(c1Cl)N(C)C(=O)C[C@H](OC(=O)[C@H](C)N(C)C(=O)CCSSC[C@H](NC(=O)[C@@H]1CSSC[C@H](NC(=O)[C@@H](Cc3ccccc3)NC(=O)Nc3ccccc3)C(=O)N[C@@H](Cc3ccc(O)cc3)C(=O)N[C@H](Cc3c[nH]c4ccccc34)C(=O)N[C@@H](CCCCN)C(=O)N[C@@H]([C@@H](C)O)C(=O)N1)C(N)=O)[C@]1(C)O[C@H]1[C@H](C)[C@@H]1C[C@@](O)(NC(=O)O1)[C@H](OC)/C=C/C=C(\C)C2` [Conjugate 42] the same measures were 2.87, “+1”, 0.042 nM, 1.7 nM and 115 nM.
